Reference: US20170318812A1, “Plant and Crop Growth Regulating/Biostimulant Formulations and Methods of Use” (Arysta Lifescience North America, LLC, priority 2014, published 2017)
“And” between values parts separate entries of the source, which are not always exact repeats. Equal entries are not always repeated.

Tests used:
ZEAMX Zea mays (Corn) = assay: Ipfencarbazone biostimulant effect, early post emergence foliar application, greenhouse pots, plant height: corn; assay type: in vivo; settings: ZEAMX AG7098PRO2
Text: (§1) The original objective of this Example was to evaluate the herbicidal effect of ipfencarbazone when applied as a post emergent treatment to a range of selected crops and weeds. Unexpectedly, crop plant growth stimulation was observed. The actual species of weeds and crops are listed in the summary data tabulated below and in FIGS. 1-13. By convention each plant species has a Bayer code (5-letter name) with the scientific name for the plant referenced in FIGS. 1-13. In each Figure, each tray contains the same configuration of weeds and/or crops. In each Figure there is one replication of each treatment (six treatments in total). The top three photographs in each Figure show the Bayer Codes and bottom three photographs are aligned with the top three facilitating viewing of the same plant species. Throughout the Examples various abbreviations as conventional shorthand notation and will be appreciated by those skilled in the art. Some exemplary abbreviations include, “CV”=Co-efficient of Variation,” “LSD”=Least Significant Difference” (G/L (gram per L) AND GA/L (gram of active ingredient per L); “SC”=suspension concentrate formulation. The diluent in all treatments was water. By convention factors that are identical in all treatments (e.g. diluent and surfactant) are not listed in each treatment.
(§2) Methods: The indicated size pots (see Tables below) are filled with a specific soil, the soil properties being indicated below. The referenced crops and weeds are planted by hand in each pot. […] The experiments include six treatments each replicated three times on each crop/weed species. At a specific time after emergence each crop and weed species was treated with ipfencarbazone plus a non-ionic surfactant (NIS). In the present Example, the surfactant employed was ENERGIC™ (non-ionic surfactant). The application timing is indicated in each of the Tables (1 or 2 leaf stage) below. Ipfencarbazone plus surfactant was diluted in water and applied at a rate equivalent to about 250 L/ha. Ipfencarbazone was applied using a track sprayer. After treatment, the pots were randomized in a greenhouse. At each assessment (indicated by “days after treatment” or DAT) the height of each plant was measured. The letters next to each mean indicate the level of statistical significance.
(§3) Replications: 3, Untreated treatments: 1, Design: Randomized Complete Block (RCB), Treatment units: Treated ‘Plot’ experimental unit size, Dry Form. Unit: %, Treated ‘Plot’ experimental unit size Width: 1 meter, Treated ‘Plot’ experimental unit size Length: 1.4 meters, Application volume: 250 L/ha, Mix size: 0.15 liters, […]

[1] = system: BRADC Brachiaria decumbens (Surinam grass); assay: Ipfencarbazone biostimulant effect, early post emergence foliar application, greenhouse pots, plant height: Surinam grass; assay type: in vivo; settings: for HEIGHT, percent of untreated check (APoC) / HEIGHT, treatment mean: BRADC BASILISK
Text: as §1, §2, §3

CC(C)N(C(=O)n1cnn(-c2ccc(Cl)cc2Cl)c1=O)c1ccc(F)cc1F [ARY-0572-001, ipfencarbazone]
HEIGHT, percent of untreated check (APoC) (ZEAMX Zea mays (Corn); 62.5 g ai/ha, 15 DA-A): (146.7%) | HEIGHT, treatment mean (ZEAMX Zea mays (Corn); 62.5 g ai/ha, 15 DA-A): 56.1 a cm and 56.1 cm | HEIGHT, single plots (replicates) (ZEAMX Zea mays (Corn); 62.5 g ai/ha, 15 DA-A, plots 102, 205, 302): 52.3 cm and 64.8 cm and 51.0 cm | HEIGHT, percent of untreated check (APoC) (ZEAMX Zea mays (Corn); 62.5 g ai/ha, 28 DA-A): (175.8%) | HEIGHT, treatment mean (ZEAMX Zea mays (Corn); 62.5 g ai/ha, 28 DA-A): 89.4 a cm and 89.4 cm | HEIGHT, single plots (replicates) (ZEAMX Zea mays (Corn); 62.5 g ai/ha, 28 DA-A, plots 102, 205, 302): 71.3 cm and 106.7 cm and 90.3 cm | HEIGHT, percent of untreated check (APoC) (ZEAMX Zea mays (Corn); 125 g ai/ha, 15 DA-A): (156.4%) | HEIGHT, treatment mean (ZEAMX Zea mays (Corn); 125 g ai/ha, 15 DA-A): 59.8 a cm and 59.8 cm | HEIGHT, single plots (replicates) (ZEAMX Zea mays (Corn); 125 g ai/ha, 15 DA-A, plots 103, 206, 305): 62.7 cm and 59.0 cm and 57.7 cm | HEIGHT, percent of untreated check (APoC) (ZEAMX Zea mays (Corn); 125 g ai/ha, 28 DA-A): (168.8%) | HEIGHT, treatment mean (ZEAMX Zea mays (Corn); 125 g ai/ha, 28 DA-A): 85.9 a cm and 85.9 cm | HEIGHT, single plots (replicates) (ZEAMX Zea mays (Corn); 125 g ai/ha, 28 DA-A, plots 103, 206, 305): 103.0 cm and 82.0 cm and 72.7 cm | HEIGHT, percent of untreated check (APoC) (ZEAMX Zea mays (Corn); 250 g ai/ha, 15 DA-A): (155.4%) | HEIGHT, treatment mean (ZEAMX Zea mays (Corn); 250 g ai/ha, 15 DA-A): 59.4 a cm and 59.4 cm | HEIGHT, single plots (replicates) (ZEAMX Zea mays (Corn); 250 g ai/ha, 15 DA-A, plots 104, 201, 306): 56.5 cm and 61.0 cm and 60.7 cm | HEIGHT, percent of untreated check (APoC) (ZEAMX Zea mays (Corn); 250 g ai/ha, 28 DA-A): (208.3%) | HEIGHT, treatment mean (ZEAMX Zea mays (Corn); 250 g ai/ha, 28 DA-A): 106.0 a cm and 106.0 cm | HEIGHT, single plots (replicates) (ZEAMX Zea mays (Corn); 250 g ai/ha, 28 DA-A, plots 104, 201, 306): 108.3 cm and 104.0 cm and 105.7 cm | HEIGHT, percent of untreated check (APoC) (ZEAMX Zea mays (Corn); 500 g ai/ha, 15 DA-A): (161.9%) | HEIGHT, treatment mean (ZEAMX Zea mays (Corn); 500 g ai/ha, 15 DA-A): 61.9 a cm and 61.9 cm | HEIGHT, single plots (replicates) (ZEAMX Zea mays (Corn); 500 g ai/ha, 15 DA-A, plots 105, 202, 301): 58.7 cm and 67.0 cm and 60.0 cm | HEIGHT, percent of untreated check (APoC) (ZEAMX Zea mays (Corn); 500 g ai/ha, 28 DA-A): (205.9%) | HEIGHT, treatment mean (ZEAMX Zea mays (Corn); 500 g ai/ha, 28 DA-A): 104.8 a cm and 104.8 cm | HEIGHT, single plots (replicates) (ZEAMX Zea mays (Corn); 500 g ai/ha, 28 DA-A, plots 105, 202, 301): 101.7 cm and 107.7 cm and 105.0 cm | HEIGHT, percent of untreated check (APoC) (ZEAMX Zea mays (Corn); 1000 g ai/ha, 15 DA-A): (98.3%) | HEIGHT, treatment mean (ZEAMX Zea mays (Corn); 1000 g ai/ha, 15 DA-A): 37.6 b cm and 37.6 cm | HEIGHT, single plots (replicates) (ZEAMX Zea mays (Corn); 1000 g ai/ha, 15 DA-A, plots 106, 203, 304): 48.7 cm and 34.7 cm and 29.3 cm | HEIGHT, percent of untreated check (APoC) (ZEAMX Zea mays (Corn); 1000 g ai/ha, 28 DA-A): (117.9%) | HEIGHT, treatment mean (ZEAMX Zea mays (Corn); 1000 g ai/ha, 28 DA-A): 60.0 b cm and 60.0 cm | HEIGHT, single plots (replicates) (ZEAMX Zea mays (Corn); 1000 g ai/ha, 28 DA-A, plots 106, 203, 304): 91.7 cm and 44.0 cm and 44.3 cm | HEIGHT, percent of untreated check (APoC) ([1]; 62.5 g ai/ha, 15 DA-A): (167.8%) | HEIGHT, treatment mean ([1]; 62.5 g ai/ha, 15 DA-A): 33.8 a cm | HEIGHT, percent of untreated check (APoC) ([1]; 62.5 g ai/ha, 28 DA-A): (164.1%) | HEIGHT, treatment mean ([1]; 62.5 g ai/ha, 28 DA-A): 55.4 bc cm | HEIGHT, percent of untreated check (APoC) ([1]; 125 g ai/ha, 15 DA-A): (139.1%) | HEIGHT, treatment mean ([1]; 125 g ai/ha, 15 DA-A): 28.1 ab cm | HEIGHT, percent of untreated check (APoC) ([1]; 125 g ai/ha, 28 DA-A): (146.7%) | HEIGHT, treatment mean ([1]; 125 g ai/ha, 28 DA-A): 49.6 cd cm | HEIGHT, percent of untreated check (APoC) ([1]; 250 g ai/ha, 15 DA-A): (141.3%) | HEIGHT, treatment mean ([1]; 250 g ai/ha, 15 DA-A): 28.5 ab cm | HEIGHT, percent of untreated check (APoC) ([1]; 250 g ai/ha, 28 DA-A): (233.6%) | HEIGHT, treatment mean ([1]; 250 g ai/ha, 28 DA-A): 78.9 a cm | HEIGHT, percent of untreated check (APoC) ([1]; 500 g ai/ha, 15 DA-A): (93.1%) | HEIGHT, treatment mean ([1]; 500 g ai/ha, 15 DA-A): 18.8 bc cm | HEIGHT, percent of untreated check (APoC) ([1]; 500 g ai/ha, 28 DA-A): (210.5%) | HEIGHT, treatment mean ([1]; 500 g ai/ha, 28 DA-A): 71.1 ab cm | HEIGHT, percent of untreated check (APoC) ([1]; 1000 g ai/ha, 15 DA-A): (54.0%) | HEIGHT, treatment mean ([1]; 1000 g ai/ha, 15 DA-A): 10.9 c cm | HEIGHT, percent of untreated check (APoC) ([1]; 1000 g ai/ha, 28 DA-A): (74.0%) | HEIGHT, treatment mean ([1]; 1000 g ai/ha, 28 DA-A): 25.0 e cm | Plant HEIGHT, Mean ([1]; Surinam grass BASILISK, 15 DA-A, 62.5 g ai/ha + Energic NIS 0.2 % v/v): 33.8 cm
